Experimental data from patent publication US11753445B2, “Therapeutic peptides” (COHBAR, INC., priority 2016, dated 2023).
Peptide text beside a SMILES is read from it.

Key:
[1] = test system: 3T3-L1 Adipocytes; assay: Free fatty acid levels in cultured mouse 3T3-L1 adipocytes, isoproterenol stimulated (Example 2); assay type: cell-based; conditions: test peptides 25 μM; isoproterenol 1 nM
Method in brief: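 3T3-L1 cells differentiated 12–17 days into adipocytes, then exposed to test peptides at 25 μM final for 18–20 h, then 1 h, then 3 h with isoproterenol (1 nM) at 37 °C. Free fatty acids in the medium measured colorimetrically at 540 nm, corrected for untreated background and expressed relative to isoproterenol-only cells.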

[2] = Stability in mouse plasma, peptides 100 uM (Example 14); assay type: in vitro ADME; conditions: mouse plasma 37° C., peptide 100 uM; for remaining at 0.25 h, 100 uM / remaining at 0.5 h, 100 uM / remaining at 1 h, 100 uM / remaining at 2 h, 100 uM / remaining at 3 h, 100 uM: pooled mouse plasma; for remaining at 0.25 h, 100 uM: 15 min, read-out: % Remaining at Each Time Point: 15 min; for remaining at 0.5 h, 100 uM: 30 min, read-out: % Remaining at Each Time Point: 30 min; for remaining at 1 h, 100 uM: 60 min, read-out: % Remaining at Each Time Point: 60 min; for remaining at 2 h, 100 uM: 120 min, read-out: % Remaining at Each Time Point: 120 min; for remaining at 3 h, 100 uM: 180 min, read-out: % Remaining at Each Time Point: 180 min
Protocol: (§1) Peptides (100 uM) were incubated in pooled mouse plasma at 37° C. and samples were removed and immediately analyzed for the concentration of intact peptide by LC/MS/MS over the course of 3 hours. The percent of peptide remaining in plasma at each time point was calculated relative to the initial peak area (Table 12).

[3] = Stability in mouse plasma, peptides 10 uM (Example 15); assay type: in vitro ADME; conditions: mouse plasma 37° C., peptide 10 uM; for remaining at 0.25 h, 10 uM / remaining at 0.5 h, 10 uM / remaining at 1 h, 10 uM / remaining at 2 h, 10 uM / remaining at 3 h, 10 uM: pooled mouse plasma; for remaining at 0.25 h, 10 uM: 15 min, read-out: % Remaining at Each Time Point: 15 min; for remaining at 0.5 h, 10 uM: 30 min, read-out: % Remaining at Each Time Point: 30 min; for remaining at 1 h, 10 uM: 60 min, read-out: % Remaining at Each Time Point: 60 min; for remaining at 2 h, 10 uM: 120 min, read-out: % Remaining at Each Time Point: 120 min; for remaining at 3 h, 10 uM: 180 min, read-out: % Remaining at Each Time Point: 180 min
Protocol: as §1, with “(10” for “(100”, “13).” for “12).”

[4] = test system: Diet Induced Obese (DIO) mice; assay: Body weight, blood glucose and fat mass in Diet Induced Obese mice, 10 days (Example 6); assay type: in vivo, Male C57BL/6 mice; conditions: male DIO mice; 10 days twice daily intraperitoneal 15 mg/kg; N = 8; mean
Protocol: Animals were randomized to treatment groups based on blood glucose levels and body weight. The peptides of the invention were administered to two groups of male DIG mice once or twice daily by subcutaneous or intraperitoneal injection at a dose of 15 mg/kg/dose for 10 days (N=8 animals per treatment group). An additional group of male DIG mice (n=8) received vehicle (water or saline) alone. Body weight, blood glucose levels and food intake were monitored. Body mass distribution (fat vs lean) was determined by quantitative whole body NMR prior to dosing and at the end of dosing.

Molecule: H-MRWQEMGYIAYPRKLR-OH [compound 15]
- Free Fatty Acid Levels in 3T3-L1 Adipocytes Expressed as a Percent of Isoproterenol Control: Percent of Control Value [1]: 67.9%
- % Remaining at Each Time Point: 0 min [2]: 100%
- remaining at 0.25 h, 100 uM [2]: 19.5%
- remaining at 0.5 h, 100 uM [2]: 18.8%
- remaining at 1 h, 100 uM [2]: 21.8%
- remaining at 2 h, 100 uM [2]: 6.63%
- remaining at 3 h, 100 uM [2]: 0%

Molecule: Ac-MRWQEMGYIFYPR-NH2 [compound 61]
- Free Fatty Acid Levels in 3T3-L1 Adipocytes Expressed as a Percent of Isoproterenol Control: Percent of Control Value [1]: 92.9%
- % Remaining at Each Time Point: 0 min [2]: 100%
- remaining at 0.25 h, 100 uM [2]: 69.1%
- remaining at 0.5 h, 100 uM [2]: 65.8%
- remaining at 1 h, 100 uM [2]: 59.1%
- remaining at 2 h, 100 uM [2]: 43.3%
- remaining at 3 h, 100 uM [2]: 29.1%

Molecule: H-RWQEMNYIAEPR-OH [compound 251]
- % Remaining at Each Time Point: 0 min [3]: 100%
- remaining at 0.25 h, 10 uM [3]: 70.6%
- remaining at 0.5 h, 10 uM [3]: 47.5%
- remaining at 1 h, 10 uM [3]: 44.4%
- remaining at 2 h, 10 uM [3]: 38.1%
- remaining at 3 h, 10 uM [3]: 30.2%
- Difference from Vehicle Control: Decrease from Baseline in Blood Glucose [4]: -34.3 mg/dL
- Difference from Vehicle Control: Decrease from Baseline in Body Weight (%) [4]: −0.55%
- Difference from Vehicle Control: Decrease from Baseline in Fat Mass [4]: 0.02 g
- Free Fatty Acid Levels in 3T3-L1 Adipocytes Expressed as a Percent of Isoproterenol Control: Percent of Control Value [1]: 83.7%

Molecule: H-MRWQEMGYIFYARKLR-OH [compound 17]
- % Remaining at Each Time Point: 0 min [3]: 100%
- remaining at 0.25 h, 10 uM [3]: 46%
- remaining at 0.5 h, 10 uM [3]: 26.8%
- remaining at 1 h, 10 uM [3]: 11.9%
- remaining at 2 h, 10 uM [3]: 11.3%
- remaining at 3 h, 10 uM [3]: 7.35%
- Difference from Vehicle Control: Decrease from Baseline in Blood Glucose [4]: -2.63 mg/dL
- Difference from Vehicle Control: Decrease from Baseline in Body Weight (%) [4]: −2.87%
- Difference from Vehicle Control: Decrease from Baseline in Fat Mass [4]: -0.65 g

Molecule: H-MRWQEEGYIFYPRKLR-OH [compound 172]
- % Remaining at Each Time Point: 0 min [3]: 100%
- remaining at 0.25 h, 10 uM [3]: 59.4%
- remaining at 0.5 h, 10 uM [3]: 33.6%
- remaining at 1 h, 10 uM [3]: 6.43%
- remaining at 2 h, 10 uM [3]: 0.44%
- remaining at 3 h, 10 uM [3]: 0%
- Difference from Vehicle Control: Decrease from Baseline in Blood Glucose [4]: -31.5 mg/dL
- Difference from Vehicle Control: Decrease from Baseline in Body Weight (%) [4]: −2.48%
- Difference from Vehicle Control: Decrease from Baseline in Fat Mass [4]: -0.77 g
- Free Fatty Acid Levels in 3T3-L1 Adipocytes Expressed as a Percent of Isoproterenol Control: Percent of Control Value [1]: 54.2%

Molecule: H-ARWQEMGYIFYPRKLR-OH [compound 6]
- Free Fatty Acid Levels in 3T3-L1 Adipocytes Expressed as a Percent of Isoproterenol Control: Percent of Control Value [1]: 58.6%
- % Remaining at Each Time Point: 0 min [2]: 100%
- remaining at 0.25 h, 100 uM [2]: 17.5%
- remaining at 0.5 h, 100 uM [2]: 19.3%
- remaining at 1 h, 100 uM [2]: 21.4%
- remaining at 2 h, 100 uM [2]: 10.9%
- remaining at 3 h, 100 uM [2]: 6.89%

Molecule: H-ERWQEAGYIAYPR-OH [compound 241]
- % Remaining at Each Time Point: 0 min [3]: 100%
- remaining at 0.25 h, 10 uM [3]: 98.8%
- remaining at 0.5 h, 10 uM [3]: 96.8%
- remaining at 1 h, 10 uM [3]: 89.5%
- remaining at 2 h, 10 uM [3]: 84.3%
- remaining at 3 h, 10 uM [3]: 80.7%
- Difference from Vehicle Control: Decrease from Baseline in Blood Glucose [4]: -7.00 mg/dL
- Difference from Vehicle Control: Decrease from Baseline in Body Weight (%) [4]: −1.49%
- Difference from Vehicle Control: Decrease from Baseline in Fat Mass [4]: -0.34 g
- Free Fatty Acid Levels in 3T3-L1 Adipocytes Expressed as a Percent of Isoproterenol Control: Percent of Control Value [1]: 50.9%

Molecule: H-MRWQEAGYIFYPRKLR-OH [compound 11]
- Difference from Vehicle Control: Decrease from Baseline in Blood Glucose [4]: -27.6 mg/dL
- Difference from Vehicle Control: Decrease from Baseline in Body Weight (%) [4]: −8.81%
- Difference from Vehicle Control: Decrease from Baseline in Fat Mass [4]: -5.85 g
- Free Fatty Acid Levels in 3T3-L1 Adipocytes Expressed as a Percent of Isoproterenol Control: Percent of Control Value [1]: 78.8%
- % Remaining at Each Time Point: 0 min [2]: 100%
- remaining at 0.25 h, 100 uM [2]: 18.3%
- remaining at 0.5 h, 100 uM [2]: 17.5%
- remaining at 1 h, 100 uM [2]: 11.5%
- remaining at 2 h, 100 uM [2]: 5.25%
- remaining at 3 h, 100 uM [2]: 2.38%

Molecule: CCCCCCCCCCCCCCCC(=O)N[C@@H](CCSC)C(=O)N[C@@H](CCCNC(=N)N)C(=O)N[C@@H](Cc1c[nH]c2ccccc12)C(=O)N[C@@H](CCC(N)=O)C(=O)N[C@@H](CCC(=O)O)C(=O)N[C@@H](CCSC)C(=O)N[C@@H](CC(N)=O)C(=O)N[C@@H](Cc1ccc(O)cc1)C(=O)N[C@H](C(=O)N[C@@H](Cc1ccccc1)C(=O)N[C@@H](Cc1ccc(O)cc1)C(=O)N1CCC[C@H]1C(=O)N[C@@H](CCCNC(=N)N)C(=O)O)[C@@H](C)CC [compound 289] (HELM PEPTIDE1{[CCCCCCCCCCCCCCCC(=O)[*:2]].M.R.W.Q.E.M.N.Y.I.F.Y.P.R}$$$$V2.0)
- % Remaining at Each Time Point: 0 min [3]: 100%
- remaining at 0.25 h, 10 uM [3]: 82.9%
- remaining at 0.5 h, 10 uM [3]: 74.6%
- remaining at 1 h, 10 uM [3]: 78.4%
- remaining at 2 h, 10 uM [3]: 77.2%
- remaining at 3 h, 10 uM [3]: 75.6%
- Free Fatty Acid Levels in 3T3-L1 Adipocytes Expressed as a Percent of Isoproterenol Control: Percent of Control Value [1]: 94.5%

Molecule: H-RWQEMNYIFEPR-OH [compound 249]
- % Remaining at Each Time Point: 0 min [3]: 100%
- remaining at 0.25 h, 10 uM [3]: 46.7%
- remaining at 0.5 h, 10 uM [3]: 40.5%
- remaining at 1 h, 10 uM [3]: 28.3%
- remaining at 2 h, 10 uM [3]: 15.8%
- remaining at 3 h, 10 uM [3]: 11.1%
- Free Fatty Acid Levels in 3T3-L1 Adipocytes Expressed as a Percent of Isoproterenol Control: Percent of Control Value [1]: 81.3%

Molecule: CC[C@H](C)[C@H](NC(=O)[C@H](Cc1ccc(O)cc1)NC(=O)CNC(=O)[C@H](CCSC)NC(=O)[C@H](CCC(=O)O)NC(=O)[C@H](CCC(N)=O)NC(=O)[C@H](Cc1c[nH]c2ccccc12)NC(=O)[C@H](CCCNC(=N)N)NC(=O)[C@@H](N)CCSC)C(=O)N[C@@H](Cc1ccccc1)C(=O)N[C@@H](Cc1ccc(O)cc1)C(=O)N1CCC[C@H]1C(=O)N[C@@H](CCCNC(=N)N)C(=O)N[C@H](C)C(=O)N[C@@H](CC(C)C)C(=O)N[C@@H](CCCNC(=N)N)C(=O)O [compound 149] (HELM PEPTIDE1{M.R.W.Q.E.M.G.Y.I.F.Y.P.R.[dA].L.R}$$$$V2.0)
- % Remaining at Each Time Point: 0 min [3]: 100%
- remaining at 0.25 h, 10 uM [3]: 59.3%
- remaining at 0.5 h, 10 uM [3]: 36.1%
- remaining at 1 h, 10 uM [3]: 11.1%
- remaining at 2 h, 10 uM [3]: 0.98%
- remaining at 3 h, 10 uM [3]: 0.28%
- Difference from Vehicle Control: Decrease from Baseline in Blood Glucose [4]: -11.4 mg/dL
- Difference from Vehicle Control: Decrease from Baseline in Body Weight (%) [4]: −5.22%
- Difference from Vehicle Control: Decrease from Baseline in Fat Mass [4]: -2.13 g
- Free Fatty Acid Levels in 3T3-L1 Adipocytes Expressed as a Percent of Isoproterenol Control: Percent of Control Value [1]: 38.6%

Molecule: H-RWQEENYIAYPR-OH [compound 260]
- % Remaining at Each Time Point: 0 min [3]: 100%
- remaining at 0.25 h, 10 uM [3]: 79.4%
- remaining at 0.5 h, 10 uM [3]: 68.8%
- remaining at 1 h, 10 uM [3]: 53.1%
- remaining at 2 h, 10 uM [3]: 35.7%
- remaining at 3 h, 10 uM [3]: 35.9%
- Free Fatty Acid Levels in 3T3-L1 Adipocytes Expressed as a Percent of Isoproterenol Control: Percent of Control Value [1]: 75.9%
